Test results from PMC13013135, “[^99mTc]Tc-PSMA-HSG for PSMA-targeted Hybrid Surgical Guidance: a new addition to the PSMA-I&S/I&T family” (European Journal of Nuclear Medicine and Molecular Imaging, 2025).

Columns and labels:
[1] = tested on: PSMA expressing LNCaP cells; parameters: method as in PMID 27635024, PMID 30237214; conditions: 60 min, 37 °C, normalized to ([^125I]IBA)KuE; cited from earlier work
[2] = Photophysical characterization; type: physicochemical; conditions: in a 5% human serum albumin solution
Procedure: The determination of the quantum yield and molar extinction coefficient of PSMA-HSG were performed according to previously published procedures.
Of the free dye HOOC-(SO3)Cy5(SO3)-Methyl (Sulfo-Cy5), a 100 µM stock solution in PBS was prepared. From this, a dilution series comprising the following concentrations was prepared: 7.5 µM, 5 µM, 2.5 µM, 1 µM, 0.75 µM, 0.5 µM, 0.25 µM. Of these solutions, absorption spectra (n=3 per concentration) were recorded using a Shimadzu UV-1280 spectrometer (Shimadzu, Kyoto, Japan). The concentrations were plotted against the mean of the maximum absorbance per concentration. A trendline was fitted, with the regression coefficient x 10^6 representing the molar extinction coefficient (R^2 ≥ 0.9900) in M^-1.L^-1.cm^-1.
The brightness in (M^-1.L^-1.cm^-1) was calculated using the following formula:
Brightness =Quantum yield hybrid label*Molar extinction coefficient free dye

LNCaP cells = experiment: Fluorescence microscopy of ligand internalization; type: cell-based, human; conditions: 100 nM
Procedure: Competitive binding experiments (IC50) were carried out in accordance with an established protocol using PSMA-expressing LNCaP cells and ([^125I]I-BA)KuE as standard radioligand. Internalization kinetics of [^99mTc]Tc-PSMA-HSG (0.5 nM) were investigated in a dual tracer internalization assay using PSMA expressing LNCaP cells and ([^125I]I-BA)KuE (0.1 nM) as an internal reference. Non-specific binding/internalization was determined in the presence of 10 µM 2-PMPA. Furthermore, PSMA-HSG internalization into LNCaP cells was investigated using fluorescence microscopy (100 nM PSMA-HSG). Please see the Supplementary Material for experimental details.
Two days prior to the experiment, LNCaP cells (approximately 100.000 cells/well) were seeded on round glass coverslips placed in the bottoms of the wells of 24-well plates. After cell adhesion and expansion, the culture medium was removed by aspiration, and the cells were washed with HBSS (1% BSA). […]
Fluorescence images were acquired on a Zeiss Axio Observer Z1 inverted microscope using a Plan Apochromat 20x, N.A. 0.8, air, DIC objective or a Plan Apochromat 63x, N.A. 1.4, oil, DIC objective. […] Fluorescence illumination was provided by an X-Cite fluorescence lamp. […]

[3] = tested on: PC3-Pip xenografts in NSG mice; experiment: Fluorescence imaging in mice with clinical-grade fluorescence endoscope; type: in vivo, mouse
Procedure: Fluorescence imaging of PC3-Pip xenografts in NSG mice (2 h p.i. at a PSMA-HSG dose of 1 nmol and 6 h p.i. at a ligand dose of 0.1 nmol, respectively; n = 1 per compound and condition) was performed using a clinical-grade fluorescence laparoscopy set-up (KARL STORZ Endoskope GMBh & Co. KG). Cy5-based tumor imaging was performed using D-light P system and a prototype modified IMAGE 1 S light source with integrated Cy5 filter (both KARL STORZ Endoskope GMBh & Co. KG). Images were recorded using integrated KARL STORZ software and image processing was performed using custom MATLAB software that provided a signal intensity-based representation of the signal-to-background ratio (SBR; [45, 46]).
PC-3 PIP xenografts were established by subcutaneous injection of 5 × 10^6 PC3-PIP cells/mouse using 8–12-week-old male NSG mice (in-house breeding, Dpt. of Oncology, University of Lausanne) as previously described. Tumors reached a size of 4-8 mm in diameter after 5-6 days and were then immediately used for the fluorescence imaging studies.

PC3-Pip tumor slices = experiment: Confocal fluorescence imaging of excised tumor specimens; type: in vivo, mouse
Procedure: After in vivo imaging, the tumors (n = 1 per condition) were excised and cut into 2 mm slices. Prior to imaging, slices were placed on a 35-mm culture dish containing a glass insert (MatTek Co.). Fluorescence confocal imaging was then performed using a Leica SP8 WLL microscope (Leica Microsystems). For assessment of tracer uptake Cy5 settings were used; λex = 633 nm, λem = 650–700 nm. Images were processed using accompanying LASX software (Leica Application Software Suite 4.8).

PSMA = PSMA (Homo sapiens, UniProt Q04609); parameters: Five patients with a diagnosis of initial (n = 4) or biochemical recurrence of (n = 1) histologically proven prostate cancer; from tissue; host or cells: prostate cancer patients: primary tumour, lymph nodes, resected tissue sections; method as in PMID 27635024, PMID 30237214; conditions: LNCaP cells, identical experimental conditions; cited from earlier work
PSMA, sequence (Q04609 whole entry): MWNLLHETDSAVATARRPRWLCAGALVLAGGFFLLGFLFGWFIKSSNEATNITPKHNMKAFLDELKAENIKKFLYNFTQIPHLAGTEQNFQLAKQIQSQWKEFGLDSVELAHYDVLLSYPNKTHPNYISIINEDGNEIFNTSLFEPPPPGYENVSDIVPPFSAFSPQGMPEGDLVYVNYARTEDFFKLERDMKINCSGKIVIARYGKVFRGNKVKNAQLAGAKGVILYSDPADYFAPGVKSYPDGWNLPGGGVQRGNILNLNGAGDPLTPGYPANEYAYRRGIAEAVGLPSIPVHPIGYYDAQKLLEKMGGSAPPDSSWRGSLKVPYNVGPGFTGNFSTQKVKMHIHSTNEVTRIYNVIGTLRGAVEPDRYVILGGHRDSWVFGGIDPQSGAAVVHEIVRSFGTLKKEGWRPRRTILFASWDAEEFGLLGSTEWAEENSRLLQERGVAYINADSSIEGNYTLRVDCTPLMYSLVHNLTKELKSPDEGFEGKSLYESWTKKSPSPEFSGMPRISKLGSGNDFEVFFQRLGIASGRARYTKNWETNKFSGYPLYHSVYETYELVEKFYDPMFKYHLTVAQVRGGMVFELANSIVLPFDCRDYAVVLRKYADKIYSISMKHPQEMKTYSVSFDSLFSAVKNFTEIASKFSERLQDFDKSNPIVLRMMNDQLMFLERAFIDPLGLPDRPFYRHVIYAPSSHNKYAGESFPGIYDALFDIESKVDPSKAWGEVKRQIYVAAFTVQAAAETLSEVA

Compound: O=C(O)CC[C@H](NC(=O)NC(CCCCNC(=O)c1ccc([125I])cc1)C(=O)O)C(=O)O (stereo partly drawn) [([^125I]IBA)KuE]
- internalization [% of reference] [1]: 100 % of reference

Compound: CC(=O)SCC(=O)N[C@H](CO)C(=O)N[C@H](CO)C(=O)N[C@H](CO)C(=O)N[C@H](CCCCNC(=O)CCCCCN1/C(=C/C=C/C=C/C2=[N+](C)c3ccc(S(=O)(=O)[O-])cc3C2(C)C)C(C)(C)c2cc(S(=O)(=O)O)ccc21)C(=O)N[C@H](Cc1ccc(O)cc1)C(=O)N[C@H](Cc1ccc2ccccc2c1)C(=O)N[C@H](CCCCNC(=O)CCCCCCC(=O)NCCCC[C@H](NC(=O)N[C@@H](CCC(=O)O)C(=O)O)C(=O)O)C(=O)O [PSMA-HSG]
- quantum yield [2]: 26%
- membrane binding, fluorescence microscopy (LNCaP cells; 30 min, 4 °C): intense and PSMA-specific membrane staining
- internalization, fluorescence microscopy (LNCaP cells; 60 min, 37 °C): efficient ligand translocation into the cells
- in vivo tumor fluorescence, Cy5 fluorescence endoscope ([3]; 0.1 nmol, 6 h p.i.): only a weak fluorescence signal
- in vivo tumor fluorescence, Cy5 fluorescence endoscope ([3]; 1 nmol, 2 h p.i.): high relative PSMA-HSG fluorescence intensity
- confocal fluorescence microscopy of tumor slices (PC3-Pip tumor slices; 2 h p.i./1 nmol): strong and homogenous PSMA-HSG fluorescence
- confocal fluorescence microscopy of tumor slices (PC3-Pip tumor slices; 6 h p.i./0.1 nmol (low dose/late timepoint)): detectable, but weak fluorescence signal

Compound: PSMA-I&S: non-fluorescent parent compound, unlabeled
- IC50 (PSMA): 0.0397 ± 0.0012 µM
